Assay results reported in patent US20240041833A1, “PHARMACEUTICAL COMBINATION PRODUCT COMPRISING A PROTOPARVOVIRUS AND AN ANTIVIRAL BENZIMIDAZOLE AND USES THEREOF FOR TREATING CANCER” (priority 2020, published 2024).

What was measured:
[1] = tested on: xenograft rat model of human pancreatic carcinoma; conditions: in vivo, in combination with H-1PV; cited from earlier work
[2] = tested on: SNB-19 and U-373 glioma cells; conditions: drug 4-0.156 μM in combination with H-1PV MOI 1 pfu/cell, 72 h; compared to cells infected only with H-1PV
Procedure: The screening was performed with the Agilent BioCel automated workstation housed in an Ermaflux L2 biosafety cabinet (equipped with charcoal filters to trap gases). The glioma cell lines SNB-19 and U-373 were used for the screening. Cells were seeded with the BRAVO pipettor in 384 well cell culture microplate at 15% confluence in medium supplemented with 10% FBS and penicillin/streptomycin. After overnight incubation half of the plates was infected with wild-type H-1 PV at MOI of 1 plaque forming unit (pfu)/cell, the other half kept untreated. All cells were then treated with 5 concentrations of each of the 1,443 compounds (5-point dose curve incorporating a […] dilution step in duplicates, range 4-0.156 μM). […] PrestoBlue® is a cell viability indicator by using the reducing power of living cells to quantitatively measure the proliferation of cells. […] Conversion is proportional to the number of metabolically active cells and therefore can be measured quantitatively. Quantitation of fluorescent signal intensity of the cell culture supernatant was carried out using the HTS-ready Berthold MITHRAS LB 940 fluorescent plate reader at excitation and emission wavelengths of 569/586 nm (reduced resazurin form resorufin). […]

[3] = tested on: different cancer cell lines of different origins; conditions: in vitro, in combination with H-1PV; cited from earlier work
AsPC-1 cells = test: Real-time detection of cell viability and proliferation (xCELLIgence); type: cell-based, human; conditions: LDV (1 and 4 μM) and/or H-1PV (up to MOI 100 pfu/cell), monitored for 150 hours
Procedure: (§1) Human cancer cells were seeded into a 96-well E-plate (ACEA Biosciences, San Diego, CA, USA) at a density of 4000 cells/well. After 24 h, cells were infected or not with H-1PV and grown in the presence or absence of LDV. Growth of mock treated cells and virus infected cells was monitored in real-time every 30 min, for 6 days using the xCELLIgence System (ACEA). Cell proliferation was expressed as normalized cell index (CI), a parameter directly proportional to the number of attached cells per well and, therefore, strictly correlated with cell proliferation and viability. The growth curves represent the averages of the results of at least three replicates
(§2) The xCELLIgence system allows the monitoring in real time of cell proliferation and viability. This system was used to confirm the anti-cancer effect of H-1PV/LDV co-treatment. Three cancer cell lines were used for these experiments, namely glioma cell lines […], and pancreatic carcinoma cell line AsPC-1. Cells were treated (or not) with H-1PV in the presence or absence of LDV. Cell proliferation was monitored every 30 min for a total of 150 hours.
(§3) Cancer cells were seeded in a 96-well E-plate. […] Cell proliferation was monitored in real-time using the xCELLIgence system. The values in FIG. 4 are expressed as normalized cell index and plotted against time. […]

SNB-19 cells = test: as above; type: cell-based, human; conditions: LDV and/or H-1PV, monitored every 30 min for 150 hours
Procedure: as §1, §2, §3

[4] = tested on: SNB-19 (glioma), AsPC-1 (pancreatic carcinoma), and PC3 (prostate cancer) cell lines; test: LDH assay of treatment-induced cell lysis (Example 4); type: cell-based, human; conditions: H-1PV and/or increasing concentrations of LDV; 120 h (SNB19) or 96 h (AsPC1, PC3)
Procedure: (§4) In an lactate dehydrogenase assay (LDH assay) LDH released from a cell, e.g. due to cell lysis, oxidizes lactate to generate NADH, which then in turn reacts with a colorimetric substrate to generate a quantifiable colour change, which is directly correlated to the amount of LDH released and can, as such, used as a measure of cell lysis.
(§5) Cancer cell lines were seeded at a density of 3,000 (U-251, BxPC-3, Panc-1, DU-145, A-549, HOP-62 and Caki-1) or 4,000 (SNB-19, AsPC-1, PC3 and U-373) cells/well in 96-well plates in 50 μl of their respective culture medium supplemented with 10% heat inactivated FBS. After 24 h, 50 μl of FBS-free medium with or without H-1PV and/or Ledipasvir (LDV; Selleck Chemicals LLC, Houston, TX, USA) was added. Cells were incubated for 3-5 days and then subjected to […] LDH assay (CytoTox 96 non-radioactive cytotoxicity assay, Promega Madison, WI, USA), according to the manufacturer's instructions. For each condition tested, six replicates were prepared of which three were used for calculating the total lysis in the presence of detergent as previously described (25).
To further confirm the results shown in Examples 1-3, the oncolytic activity of H-1PV/LDV combination, was analysed by LDH assays. […]

U-373 glioma cells = test: LDH assay of treatment-induced cell lysis (Example 5); type: cell-based, human; conditions: 4 μM LDV and/or increasing viral MOIs, 96 h
Procedure: as §4, §5
U-373 glioma cells treated (or not) with 4 μM LDV were infected (or not) with increasing viral MOIs (pfu/cell) and treatment-induced cell lysis was assessed by LDH assay.
U373 glioma cells, were grown for 24 h before being treated for 96 h as indicated. […]

[5] = tested on: U-251, BxPC-3, Panc-1, Du-145, A-549, Hop-62 and Caki-1 cancer cell lines; test: LDH assay of treatment-induced cell lysis (Example 6); type: cell-based, human; conditions: LDV, H-1PV or both, 96 h, seven cancer cell lines
Procedure: as §4, §5
H-1 PV can target and kill a broad spectrum of cancer cell lines from different tumour entities. […] Treatment-induced cell lysis was analysed by LDH assay. […]

[6] = tested on: SNB-19, U-373 and AsPC-1 cell lines; test: Optical microscopy analysis (IncuCyte ZOOM) of morphological/cytopathic effects; type: cell-based, human; conditions: 4 μM LDV and/or H-1PV MOI 1 (SNB-19) or 100 (U-373, AsPC-1); 4 days (96 h) post-treatment
Procedure: Two glioblastoma cell lines (SNB-19 and U-373) and a pancreatic cell line (AsPC-1) displaying different susceptibility to H-1 PV infection were treated (or not) with increasing amounts of H-1PV (MOI, pfu/cell) in the presence or absence of 4 μM LDV.
The cancer cell lines indicated in FIG. 3 were plated at the same density. After 24 h, cells were infected (or not) with H-1 PV used at the MOI (pfu/cell) of 1 (SNB-19), or 100 (U-373 and AsPC-1) in combination (or not) with 4 μM LDV. Light microscopy images were acquired using the IncuCyte ZOOM™ live cell imaging system (Essen BioScience, MI USA) at 96 h after treatment.

Row | SMILES | enhancement of H-1PV oncotoxicity [1] | interaction with H-1PV: fold increase in H-1PV cytotoxicity (PrestoBlue) [2] | enhancement of H-1PV oncotoxicity [3] | cell proliferation and viability (normalized cell index) (AsPC-1 cells) | cell proliferation and viability (normalized cell index) (SNB-19 cells) | treatment-induced cell lysis (LDH) [4] | treatment-induced cell lysis (LDH) (U-373 glioma cells) | treatment-induced cell lysis (LDH) [5] | cytotoxic / cytopathic effects and morphological changes [6]
1 | CN(C)CC[C@H](CSc1ccccc1)Nc1ccc(S(=O)(=O)NC(=O)c2ccc(N3CCN(Cc4ccccc4-c4ccc(Cl)cc4)CC3)cc2)cc1[N+](=O)[O-] [ABT-737] | enhance H-1PV oncotoxicity in a synergistic manner | synergized with H-1PV | enhance H-1PV oncotoxicity in a synergistic manner | – | – | – | – | – | –
2 | Oc1ccc(O)cc1 [Hydroquinone] | – | did not interact with H-1 PV | – | – | – | – | – | – | –
3 | COC(=O)N[C@H](C(=O)N1CC2(CC2)C[C@H]1c1ncc(-c2ccc3c(c2)C(F)(F)c2cc(-c4ccc5nc([C@@H]6[C@H]7CC[C@H](C7)N6C(=O)[C@@H](NC(=O)OC)C(C)C)[nH]c5c4)ccc2-3)[nH]1)C(C)C [LDV, methyl N-[(2S)-1-[(6S)-6-[5-[9,9-difluoro-7-[2-[(1R,3S,4S)-2-[(2S)-2-(methoxycarbonylamino)-3-methylbutanoyl]-2-azabicyclo[2.2.1]heptan-3-yl]-3H-benzimidazol-5-yl]fluoren-2-yl]-1H-imidazol-2-yl]-5-azaspiro[2.4]heptan-5-yl]-3-methyl-1-oxobutan-2-yl]carbamate] | – | – | – | did not affect cell proliferation | did not affect cell proliferation | did not induce cell lysis | did not induce cell lysis | did not induced cell lysis | did not induce any evident cytotoxic effects
